Active and inactive are the calls of the source. The rule behind the calls is not given here.
Legend:
Escherichia coli [1] = experiment: Potentiation of TPP-induced antibacterial activity against AcrB deficient Escherichia coli BW25113 assessed as TPP MIC at 32 ug/ml incubated for 18 hrs under aerobic condition by checkerboard titration assay (reference value: 256 ug/ml); assay type: functional; conditions: dose 32 µg/ml
Escherichia coli [2] = experiment: Potentiation of erythromycin-induced antibacterial activity against AcrB deficient Escherichia coli BW25113 assessed as erythromycin MIC at 32 ug/ml incubated for 18 hrs under aerobic condition by checkerboard titration assay (reference value: 32 ug/ml); assay type: functional; conditions: dose 32 µg/ml
Escherichia coli [3] = experiment: Potentiation of erythromycin-induced antibacterial activity against wild type Escherichia coli BW25113 assessed as erythromycin MIC at 256 ug/ml incubated for 18 hrs under aerobic condition by checkerboard titration assay (reference value: 128 ug/ml); assay type: functional; conditions: dose 256 µg/ml
Escherichia coli [4] = experiment: Potentiation of rifampicin-induced antibacterial activity against wild type Escherichia coli BW25113 assessed as rifampicin MIC at 256 ug/ml incubated for 18 hrs under aerobic condition by checkerboard titration assay (reference value: 16 ug/ml); assay type: functional; conditions: dose 256 µg/ml
Escherichia coli [5] = experiment: Antibacterial activity against Wild type Escherichia coli BW25113 assessed as inhibition of AcrB efflux pump by mesuring the glucose-induced nile red efflux at 500 uM preincubated with CCCP for 15 mins followed by compound addition after 15 mins nile red added and incubated for 3 hrs in shaker by fluorimetric analysis; assay type: functional, organism-based; conditions: time 195.0 min
Escherichia coli [6] = experiment: Potentiation of TPP-induced antibacterial activity against wild type Escherichia coli BW25113 assessed as TPP MIC at 128 ug/ml incubated for 18 hrs under aerobic condition by checkerboard titration assay (reference value: 1024 ug/ml); assay type: functional; conditions: dose 128 µg/ml
Escherichia coli [7] = experiment: Potentiation of chloramphenicol-induced antibacterial activity against wild type Escherichia coli BW25113 assessed as chloramphenicol MIC at 256 ug/ml incubated for 18 hrs under aerobic condition by checkerboard titration assay (reference value: 16 ug/ml); assay type: functional; conditions: dose 256 µg/ml
Escherichia coli [8] = experiment: Potentiation of chloramphenicol-induced antibacterial activity against wild type Escherichia coli BW25113 assessed as chloramphenicol MIC at 128 ug/ml incubated for 18 hrs under aerobic condition by checkerboard titration assay (reference value: 16 ug/ml); assay type: functional; conditions: dose 128 µg/ml
Escherichia coli [9] = experiment: Potentiation of rifampicin-induced antibacterial activity against wild type Escherichia coli BW25113 assessed as rifampicin MIC at 128 ug/ml incubated for 18 hrs under aerobic condition by checkerboard titration assay (reference value: 16 ug/ml); assay type: functional; conditions: dose 128 µg/ml
Escherichia coli [10] = experiment: Potentiation of erythromycin-induced antibacterial activity against wild type Escherichia coli BW25113 assessed as erythromycin MIC at 128 ug/ml incubated for 18 hrs under aerobic condition by checkerboard titration assay (reference value: 128 ug/ml); assay type: functional; conditions: dose 128 µg/ml
Escherichia coli [11] = experiment: Potentiation of TPP-induced antibacterial activity against wild type Escherichia coli BW25113 assessed as TPP MIC at 256 ug/ml incubated for 18 hrs under aerobic condition by checkerboard titration assay (reference value: 1024 ug/ml); assay type: functional; conditions: dose 256 µg/ml
Cell membrane [12] = experiment: Induction of outer membrane permeabilization in wild type Escherichia coli BW25113 assessed as increase in nitrocefin hydrolysis at 512 ug/ml measured for 30 mins in presence of CCCP by spectrophotometry analysis; assay type: subcellular; conditions: dose 512.0 µg/ml
Escherichia coli [13] = experiment: Potentiation of chloramphenicol-induced antibacterial activity against AcrB deficient Escherichia coli BW25113 assessed as chloramphenicol MIC at 32 ug/ml incubated for 18 hrs under aerobic condition by checkerboard titration assay (reference value: 2 ug/ml); assay type: functional; conditions: dose 32 µg/ml
Cell membrane [14] = experiment: Disruption of inner membrane potential in wild type Escherichia coli BW25113 at 512 ug/ml preincubated for 10 mins followed by glucose stimulation and CCCP addition by DiOC2 probe based fluorimetric analysis; assay type: subcellular; conditions: dose 512.0 µg/ml
Escherichia coli [15] = experiment: Potentiation of chloramphenicol-induced antibacterial activity against wild type Escherichia coli BW25113 assessed as chloramphenicol MIC at 512 ug/ml incubated for 18 hrs under aerobic condition by checkerboard titration assay (reference value: 16 ug/ml); assay type: functional; conditions: dose 512 µg/ml
Escherichia coli [16] = experiment: Potentiation of rifampicin-induced antibacterial activity against wild type Escherichia coli BW25113 assessed as rifampicin MIC at 512 ug/ml incubated for 18 hrs under aerobic condition by checkerboard titration assay (reference value: 16 ug/ml); assay type: functional; conditions: dose 512 µg/ml
Escherichia coli [17] = experiment: Potentiation of chloramphenicol-induced antibacterial activity against AcrB deficient Escherichia coli BW25113 assessed as chloramphenicol MIC at 256 ug/ml incubated for 18 hrs under aerobic condition by checkerboard titration assay (reference value: 2 ug/ml); assay type: functional; conditions: dose 256 µg/ml
Escherichia coli [18] = experiment: Potentiation of TPP-induced antibacterial activity against wild type Escherichia coli BW25113 assessed as TPP MIC at 512 ug/ml incubated for 18 hrs under aerobic condition by checkerboard titration assay (reference value: 1024 ug/ml); assay type: functional; conditions: dose 512 µg/ml
Escherichia coli [19] = experiment: Potentiation of erythromycin-induced antibacterial activity against wild type Escherichia coli BW25113 assessed as erythromycin MIC at 512 ug/ml incubated for 18 hrs under aerobic condition by checkerboard titration assay (reference value: 128 ug/ml); assay type: functional; conditions: dose 512 µg/ml
Escherichia coli [20] = experiment: Potentiation of TPP-induced antibacterial activity against AcrB deficient Escherichia coli BW25113 assessed as TPP MIC at 256 ug/ml incubated for 18 hrs under aerobic condition by checkerboard titration assay (reference value: 256 ug/ml); assay type: functional; conditions: dose 256 µg/ml
Escherichia coli [21] = experiment: Antibacterial activity against wild type Escherichia coli BW25113 assessed as inhibition of bacterial growth at 256 ug/ml after 18 hrs by microtitre broth dilution assay; assay type: functional, organism-based; conditions: dose 256.0 µg/ml
Escherichia coli [22] = experiment: Potentiation of erythromycin-induced antibacterial activity against AcrB deficient Escherichia coli BW25113 assessed as erythromycin MIC at 256 ug/ml incubated for 18 hrs under aerobic condition by checkerboard titration assay (reference value: 32 ug/ml); assay type: functional; conditions: dose 256 µg/ml
Escherichia coli [23] = experiment: Antibacterial activity against AcrB deficient Escherichia coli BW25113 assessed as inhibition of bacterial growth at 256 ug/ml after 18 hrs by microtitre broth dilution assay; assay type: functional, organism-based; conditions: dose 256.0 µg/ml
Escherichia coli [24] = experiment: Potentiation of erythromycin-induced antibacterial activity against AcrB deficient Escherichia coli BW25113 assessed as erythromycin MIC at 512 ug/ml incubated for 18 hrs under aerobic condition by checkerboard titration assay (reference value: 32 ug/ml); assay type: functional; conditions: dose 512 µg/ml
Escherichia coli [25] = experiment: Potentiation of chloramphenicol-induced antibacterial activity against wild type Escherichia coli BW25113 assessed as fold reduction in chloramphenicol MIC at 512 ug/ml incubated for 18 hrs under aerobic condition by checkerboard titration assay relative to chloramphenicol MIC alone; assay type: functional; conditions: dose 512 µg/ml
Escherichia coli [26] = experiment: Potentiation of chloramphenicol-induced antibacterial activity against AcrB deficient Escherichia coli BW25113 assessed as chloramphenicol MIC at 512 ug/ml incubated for 18 hrs under aerobic condition by checkerboard titration assay (reference value: 2 ug/ml); assay type: functional; conditions: dose 512 µg/ml
Escherichia coli [27] = experiment: Potentiation of TPP-induced antibacterial activity against wild type Escherichia coli BW25113 assessed as fold reduction in TPP MIC at 256 ug/ml incubated for 18 hrs under aerobic condition by checkerboard titration assay relative to TPP MIC alone; assay type: functional; conditions: dose 256 µg/ml

Row | Structure (SMILES) | MIC (Escherichia coli [3]) | MIC (Escherichia coli [4]) | Activity (Escherichia coli [5]) | MIC (Escherichia coli [6]) | MIC (Escherichia coli [7]) | MIC (Escherichia coli [8]) | MIC (Escherichia coli [9]) | MIC (Escherichia coli [10]) | MIC (Escherichia coli [11]) | Activity (Cell membrane [12]) | Activity (Cell membrane [14]) | MIC (Escherichia coli [15]) | MIC (Escherichia coli [17]) | MIC (Escherichia coli [18]) | MIC (Escherichia coli [19]) | MIC (Escherichia coli [20]) | MIC (Escherichia coli [22]) | other results
1 | CC(C)CCOc1cc(C(=O)NCCc2ccccc2)cc2ccccc12 | 32 µg/mL | 16 µg/mL | inactive | 1020 µg/mL | 4 µg/mL | 8 µg/mL | 16 µg/mL | 64 µg/mL | 1020 µg/mL | inactive | inactive |  |  |  |  |  |  | MIC (Escherichia coli [1]): 32 µg/mL; MIC (Escherichia coli [2]): 2 µg/mL; MIC (Escherichia coli [13]): 2 µg/mL
2 | O=C(Nc1ccccc1)c1cc(OCc2ccccc2)c2ccccc2c1 | 128 µg/mL | 16 µg/mL | Active |  | 16 µg/mL |  |  |  | 1020 µg/mL | Active | Active | 16 µg/mL | 2 µg/mL | 512 µg/mL | 128 µg/mL | 256 µg/mL |  | MIC (Escherichia coli [16]): 8 µg/mL
3 | NC(=O)c1cc(OCCNCc2ccco2)c2ccccc2c1 | 128 µg/mL | 16 µg/mL |  | 1020 µg/mL | 16 µg/mL | 16 µg/mL | 16 µg/mL | 128 µg/mL | 512 µg/mL | Active | inactive |  | 1 µg/mL |  |  | 256 µg/mL | 16 µg/mL | Activity (Escherichia coli [21]): inactive; Activity (Escherichia coli [23]): Active
4 | O=C(Nc1ccccc1C(F)(F)F)c1cc(OCc2ccccc2)c2ccccc2c1 | 128 µg/mL | 16 µg/mL |  |  | 8 µg/mL |  |  |  | 1020 µg/mL |  |  | 2 µg/mL |  | 1020 µg/mL | 128 µg/mL |  |  | MIC (Escherichia coli [24]): 16 µg/mL; fold change (FC) (Escherichia coli [25]): 8; MIC (Escherichia coli [26]): 0.5 µg/mL
5 | O=C(NCc1ccccc1Cl)c1cc(OCc2ccccc2)c2ccccc2c1 | 64 µg/mL | 4 µg/mL | Active | 1020 µg/mL | 4 µg/mL | 16 µg/mL | 16 µg/mL | 128 µg/mL | 256 µg/mL | Active | Active |  | 2 µg/mL |  |  | 256 µg/mL | 32 µg/mL | fold change (FC) (Escherichia coli [27]): 4
